≈ marks a conversion by molar mass, not a printed value.
Experiments:
Type in all cases: functional
Streptococcus pneumoniae [1] = assay: Antibacterial activity against penicillin-resistant Streptococcus pneumoniae […] by agar dilution method
Streptococcus pneumoniae [2] = assay: Antibacterial activity against Streptococcus pneumoniae HMC 1149 harboring S81F and S79Y mutation in quinolone-resistant determining regions of GyrA and ParC genes respectively showing efflux to ciprofloxacin, gemifloxacin by agar dilution method
Streptococcus pneumoniae [3] = assay: Antibacterial activity against Streptococcus pneumoniae HMC 2527 harboring S81Y mutation in quinolone-resistant determining regions of GyrA gene, S79F, K137N mutation in QRDR of ParC gene and I460V mutation in QRDR of ParE gene by agar dilution method
Streptococcus pneumoniae [4] = assay: Antibacterial activity against quinolone-susceptible Streptococcus pneumoniae ATCC 49619 by agar dilution method
Streptococcus pneumoniae [5] = assay: Antibacterial activity against Streptococcus pneumoniae HMC 1058 harboring S79F, K137N mutation in quinolone-resistant determining regions of ParC gene and 460V mutation in QRDR of ParE gene by agar dilution method
Streptococcus pneumoniae [6] = assay: (§1) Antibacterial activity against penicillin-resistant and quinolone-susceptible Streptococcus pneumoniae HMC 3583 expressing mefA and harboring S81F mutation in quinolone-resistant determining regions of GyrA gene, D83N mutation in QRDR of ParC gene and I460V mutation in QRDR of ParE gene after 49 passages with DC-159a measured after 10 daily antibiotic-free subculturing by multi-step resistance selection technique
Streptococcus pneumoniae [7] = assay: Antibacterial activity against Streptococcus pneumoniae HMC 1055 harboring S81F mutation in quinolone-resistant determining regions of GyrA gene, S79F, K137N mutation in QRDR of ParC gene and I460V mutation in QRDR of ParE gene by agar dilution method
Streptococcus pneumoniae [8] = assay: as §1, with “GyrA” for “GyrA gene, D83N mutation in QRDR of ParC”, “I460V, D435N” for “I460V”, “46” for “49”, “gatifloxacin” for “DC-159a”
Streptococcus pneumoniae [9] = assay: Antibacterial activity against Streptococcus pneumoniae HMC 1060 harboring S81F mutation in quinolone-resistant determining regions of GyrA gene, S79F, K137N mutation in QRDR of ParC gene and I460V mutation in QRDR of ParE gene by agar dilution method
Streptococcus pneumoniae [10] = assay: as §1, with “penicillin-, macrolide-” for “penicillin-resistant”, “63” for “3583 expressing mefA and”, “D83Y” for “D83N”, “34” for “49”, “gemifloxacin” for “DC-159a”
Streptococcus pneumoniae [11] = assay: Antibacterial activity against Streptococcus pneumoniae HMC 1076 harboring S81F mutation in quinolone-resistant determining regions of GyrA gene, D83N mutation in QRDR of ParC gene and I460V mutation in QRDR of ParE gene by agar dilution method
Streptococcus pneumoniae [12] = assay: Antibacterial activity against penicillin-resistant and quinolone-susceptible Streptococcus pneumoniae HMC 228 expressing ermB by broth microdilution method
Streptococcus pneumoniae [13] = assay: (§2) Antibacterial activity against macrolide-, quinolone-susceptible and penicillin-intermediate Streptococcus pneumoniae HMC 100 harboring S79Y mutation in quinolone-resistant determining regions of ParC gene after 34 passages with gemifloxacin measured after 10 daily antibiotic-free subculturing by multi-step resistance selection technique
Streptococcus pneumoniae [14] = assay: Antibacterial activity against penicillin-, macrolide-susceptible and quinolone-resistant Streptococcus pneumoniae HMC 1074 harboring S81F, E85K mutation in quinolone-resistant determining regions of GyrA gene, S79F mutation in QRDR of ParC gene and I460V mutation in QRDR of ParE gene after 27 passages with gemifloxacin measured after 10 daily antibiotic-free subculturing by multi-step resistance selection technique
Streptococcus pneumoniae [15] = assay: Antibacterial activity against Streptococcus pneumoniae HMC 1059 harboring S81F mutation in quinolone-resistant determining regions of GyrA gene, S79F, K137N mutation in QRDR of ParC gene and I460N mutation in QRDR of ParE gene by agar dilution method
Streptococcus pneumoniae [16] = assay: as §2, with “99” for “100”, “harboring S81Y and” for “harboring”, “of GyrA and” for “of”, “genes respectively” for “gene”, “41” for “34”, “moxifloxacin” for “gemifloxacin”
Streptococcus pneumoniae [17] = assay: (§3) Antibacterial activity against Streptococcus pneumoniae HMC 1066 harboring S81F mutation in quinolone-resistant determining regions of GyrA gene, S79F mutation in QRDR of ParC gene and I460V mutation in QRDR of ParE gene by agar dilution method
Streptococcus pneumoniae [18] = assay: Antibacterial activity against penicillin- and quinolone-susceptible Streptococcus pneumoniae HMC 5055 expressing mefA by broth microdilution method
Streptococcus pneumoniae [19] = assay: Antibacterial activity against azithromycin-resistant Streptococcus pneumoniae […] by agar dilution method
Streptococcus pneumoniae [20] = assay: Antibacterial activity against quinolone-susceptible and penicillin-intermediate Streptococcus pneumoniae HMC 5048 expressing mefA after 50 passages by broth microdilution method
Streptococcus pneumoniae [21] = assay: Antibacterial activity against penicillin-resistant and quinolone-susceptible Streptococcus pneumoniae HMC 3583 expressing mefA by broth microdilution method
Streptococcus pneumoniae [22] = assay: Antibacterial activity against Streptococcus pneumoniae HMC 1146 harboring S81F mutation in quinolone-resistant determining regions of GyrA gene, and D435N mutation in QRDR of ParE gene by agar dilution method
Streptococcus pneumoniae [23] = assay: Antibacterial activity against penicillin-resistant and quinolone-susceptible Streptococcus pneumoniae HMC 3583 expressing mefA and harboring I460V mutation in QRDR of ParE gene after 41 passages with gemifloxacin measured after 10 daily antibiotic-free subculturing by multi-step resistance selection technique
Streptococcus pneumoniae [24] = assay: as §3, with “against penicillin-, macrolide-susceptible and quinolone-resistant” for “against”, “1074” for “1066”, “broth microdilution” for “agar dilution”
Streptococcus pneumoniae [25] = assay: as §2, with “harboring S81Y and” for “harboring”, “of GyrA and” for “of”, “genes respectively” for “gene”, “42” for “34”, “levofloxacin” for “gemifloxacin”
Streptococcus pneumoniae [26] = assay: Antibacterial activity against macrolide-, quinolone-susceptible and penicillin-intermediate Streptococcus pneumoniae HMC 99 after 50 passages by broth microdilution method
Streptococcus pneumoniae [27] = assay: Antibacterial activity against Streptococcus pneumoniae HMC 1062 harboring S81F mutation in quinolone-resistant determining regions of GyrA gene, S79F mutation in QRDR of ParC gene and I460V mutation in QRDR of ParE gene by agar dilution method
Streptococcus pneumoniae [28] = assay: Antibacterial activity against quinolone-resistant Streptococcus pneumoniae […] by agar dilution method
Streptococcus pneumoniae [29] = assay: Antibacterial activity against Streptococcus pneumoniae HMC 1074 harboring S81F mutation in quinolone-resistant determining regions of GyrA gene, S79F mutation in QRDR of ParC gene and I460V mutation in QRDR of ParE gene by agar dilution method
Streptococcus pneumoniae [30] = assay: as §1, with “228” for “3583”, “ermB” for “mefA”, “28” for “49”
Streptococcus pneumoniae [31] = assay: Antibacterial activity against Streptococcus pneumoniae HMC 5041 harboring S81F and S79F mutation in quinolone-resistant determining regions of GyrA and ParC genes respectively by agar dilution method
Streptococcus pneumoniae [32] = assay: as §1, with “228” for “3583”, “ermB” for “mefA”, “S79Y” for “D83N”, “36” for “49”, “moxifloxacin” for “DC-159a”

SMILES	MIC (Streptococcus pneumoniae [2])	MIC (Streptococcus pneumoniae [3])	MIC (Streptococcus pneumoniae [5])	MIC (Streptococcus pneumoniae [6])	MIC (Streptococcus pneumoniae [7])	MIC (Streptococcus pneumoniae [8])	MIC (Streptococcus pneumoniae [9])	MIC (Streptococcus pneumoniae [10])	MIC (Streptococcus pneumoniae [11])	MIC (Streptococcus pneumoniae [12])	MIC (Streptococcus pneumoniae [13])	MIC (Streptococcus pneumoniae [14])	MIC (Streptococcus pneumoniae [15])	MIC (Streptococcus pneumoniae [16])	MIC (Streptococcus pneumoniae [17])	MIC (Streptococcus pneumoniae [18])	MIC (Streptococcus pneumoniae [20])	MIC (Streptococcus pneumoniae [22])	MIC (Streptococcus pneumoniae [23])	MIC (Streptococcus pneumoniae [25])	further results
CO/N=C1\CN(c2nc3c(cc2F)c(=O)c(C(=O)O)cn3C2CC2)CC1CN (stereo not drawn) [GEMIFLOXACIN]	0.25 µg/mL (≈ 0.642 µM)	0.25 µg/mL (≈ 0.642 µM)	0.125 µg/mL (≈ 0.321 µM)	4 µg/mL (≈ 10.3 µM)	0.5 µg/mL (≈ 1.28 µM)	8 µg/mL (≈ 20.5 µM)	0.25 µg/mL (≈ 0.642 µM)	0.5 µg/mL (≈ 1.28 µM)	0.5 µg/mL (≈ 1.28 µM)	0.06 µg/mL (≈ 0.154 µM)	1 µg/mL (≈ 2.57 µM)	2 µg/mL (≈ 5.14 µM)	0.5 µg/mL (≈ 1.28 µM)	1 µg/mL (≈ 2.57 µM)	0.25 µg/mL (≈ 0.642 µM)	0.03 µg/mL (≈ 0.077 µM)	0.125 µg/mL (≈ 0.321 µM)	0.5 µg/mL (≈ 1.28 µM)	2 µg/mL (≈ 5.14 µM)	0.5 µg/mL (≈ 1.28 µM)	MIC50 (Streptococcus pneumoniae [1]): 0.03 µg/mL (≈ 0.077 µM); MIC90 (Streptococcus pneumoniae [1]): 0.25 µg/mL (≈ 0.642 µM); MIC50 (Streptococcus pneumoniae [4]): 0.03 µg/mL (≈ 0.077 µM); MIC90 (Streptococcus pneumoniae [4]): 0.06 µg/mL (≈ 0.154 µM); MIC50 (Streptococcus pneumoniae [19]): 0.03 µg/mL (≈ 0.077 µM); MIC90 (Streptococcus pneumoniae [19]): 0.06 µg/mL (≈ 0.154 µM); MIC (Streptococcus pneumoniae [21]): 0.03 µg/mL (≈ 0.077 µM); MIC (Streptococcus pneumoniae [24]): 0.25 µg/mL (≈ 0.642 µM); MIC (Streptococcus pneumoniae [26]): 0.125 µg/mL (≈ 0.321 µM); MIC (Streptococcus pneumoniae [27]): 1 µg/mL (≈ 2.57 µM); MIC50 (Streptococcus pneumoniae [28]): 0.25 µg/mL (≈ 0.642 µM); MIC90 (Streptococcus pneumoniae [28]): 1 µg/mL (≈ 2.57 µM); MIC (Streptococcus pneumoniae [29]): 0.5 µg/mL (≈ 1.28 µM); MIC (Streptococcus pneumoniae [30]): 1 µg/mL (≈ 2.57 µM); MIC (Streptococcus pneumoniae [31]): 0.5 µg/mL (≈ 1.28 µM); MIC (Streptococcus pneumoniae [32]): 2 µg/mL (≈ 5.14 µM)
COc1c(N2C[C@@H]3CCCN[C@@H]3C2)c(F)cc2c(=O)c(C(=O)O)cn(C3CC3)c12 [MOXIFLOXACIN]	0.25 µg/mL (≈ 0.623 µM)	4 µg/mL (≈ 9.96 µM)	0.5 µg/mL (≈ 1.25 µM)	2 µg/mL (≈ 4.98 µM)	4 µg/mL (≈ 9.96 µM)	4 µg/mL (≈ 9.96 µM)	2 µg/mL (≈ 4.98 µM)	4 µg/mL (≈ 9.96 µM)	2 µg/mL (≈ 4.98 µM)	0.12 µg/mL (≈ 0.299 µM)	2 µg/mL (≈ 4.98 µM)	16 µg/mL (≈ 39.9 µM)	4 µg/mL (≈ 9.96 µM)	4 µg/mL (≈ 9.96 µM)	2 µg/mL (≈ 4.98 µM)	0.25 µg/mL (≈ 0.623 µM)	0.125 µg/mL (≈ 0.311 µM)	2 µg/mL (≈ 4.98 µM)	0.5 µg/mL (≈ 1.25 µM)	4 µg/mL (≈ 9.96 µM)	MIC (Streptococcus pneumoniae [27]): 4 µg/mL (≈ 9.96 µM); MIC50 (Streptococcus pneumoniae [28]): 4 µg/mL (≈ 9.96 µM); MIC90 (Streptococcus pneumoniae [28]): 4 µg/mL (≈ 9.96 µM); MIC (Streptococcus pneumoniae [29]): 2 µg/mL (≈ 4.98 µM); MIC (Streptococcus pneumoniae [30]): 2 µg/mL (≈ 4.98 µM); MIC (Streptococcus pneumoniae [31]): 4 µg/mL (≈ 9.96 µM); MIC (Streptococcus pneumoniae [32]): 2 µg/mL (≈ 4.98 µM)

Source: ChEMBL document CHEMBL1151449, “In vitro activity of DC-159a, a new broad-spectrum fluoroquinolone, compared with that of other agents against drug-susceptible and -resistant pneumococci” (2008)
